By IC50 is commonly meant the concentration at which inhibition is half-maximal. As a reminder, the Ki is the equilibrium dissociation constant of an inhibitor or competing ligand from its target. By solubility is commonly meant the concentration that dissolves in the medium under given conditions.

Converted amounts (≈) assume the structure as drawn. “Also recorded” adds a separate entry of the source. Some results are limits rather than exact numbers.

We go through three compounds from patent US9447055B1, “α-amino esters of hydroxypropylthiazolidine carboxamide derivative and salt form, crystal polymorph thereof” (Merck Serono S.A., priority 2016, dated 2016).

Data set [1] concerns panel of 50 receptors, channels and enzymes binding sites. The note with it: 1 μM.
Data set [2] concerns the target human FP (Homo sapiens (Human), UniProt P43088). The data set is described as follows: IP3 synthesis in FP-transfected HEK293-EBNA cells. Format: cell-based. The protocol:
The functional characterization of compound II on human FP was performed in transfected HEK293-EBNA cells.

Data set [3] in a line: stability in HBSS transport buffer. The note with it: 37° C., 60 and 120 minutes. It counts as in vitro ADME. How it is done:
Stability of both compound I and compound II was assessed during the test. These compounds were dissolved in HBSS buffer (1% DMSO final concentration) at the concentrations of 1.5, 3 and 6 μM. An aliquot of each solution was sampled at time zero (t=0) to assess the starting concentrations of the compounds. The solutions were incubated at 37° C. for the duration of the transport experiment. An aliquot of each solution was sampled at the end of experiment (t=120) to assess the final concentrations of compound I and compound II. Samples were analyzed by LC-MS.

The subject of data set [4] is spontaneous uterine contractions. The data set is described as follows: spontaneous uterine activity in late-term anaesthetized pregnant rat. The note with it: late-term pregnant rats; for reduction of spontaneous uterine contractions: i.v. or oral, maximal effect at 30 mg/kg i.v. and 60 mg/kg oral; for intravenous activity compared with atosiban: i.v. It counts as in vivo. The source says:
The tocolytic effects of compound I and compound II were investigated in a model of spontaneous uterine activity in late-term (19-21 days of gestation) anaesthetized pregnant rat (Kawarabayashi et al. Am. J. Obstet. Gynecol. 175:1348-1355 (1996) and Shinkai et al. J. Pharm. Pharmacol. 52:1417-1423 (2000)). Briefly, late-term pregnant female rats were anaesthetized with urethane. One pregnant uterine horn was exposed and a polyethylene catheter bearing on the tip a latex balloon filled with saline was inserted into the lumen. The catheter was connected to an amplifying/recording system via a pressure-transducer. […] For the i.v. administration the uterine contractile activity was quantified by calculating the AUC during the 10 min injection period. The percent variation of the AUC values relative to the spontaneous uterine response observed after each compound administration was calculated in comparison to the value recorded before the first dose-administration (basal value). The effect of compound I or compound II was evaluated by comparing pre- and post-treatment luminal uterine pressure values. For the oral administration the same computation procedure was applied at different time points after treatment. Statistical differences between treatment groups at each time-point were determined by using one-way ANOVA followed by Tukey test. Both compounds intravenously or orally administered were able to markedly reduce spontaneous uterine contractions by around 40-50% (maximal effect obtained at 30 mg/kg by i.v. route and 60 mg/kg by oral route).

The test system of data set [5] is Caco-2 cell monolayer. The data set is described as follows: bidirectional permeability across Caco-2 cell monolayers. It counts as in vitro ADME, human. The settings on record: for efflux: bi-directional. The protocol: (§1) Compound I was dissolved in HBSS buffer (1% DMSO final concentration) at the concentrations of 1.5, 3 and 6 μM. Each concentration/sampling time was run in duplicate well. The test was performed in a gradient pH: the apical compartment (mucosal) was at pH 6.5, the basolateral compartment (serosal) was at pH 7.4.
Apical to basolateral (A→B, mucosal to serosal) transport: 200 μL of each concentration of compound I was added to the apical compartment and 400 μL of HBSS was added to the basolateral compartment. The plates were incubated at 37° C. An aliquot of the basolateral compartment was sampled after 60 and 120 min (t=60 and t=120). An aliquot of the apical compartment was sampled at the starting time (t=0) and after 120 min. (t=120).
Basolateral to apical (B→A, serosal to mucosal) transport: 400 μL of each concentration of compound I was added to the basolateral compartment and 200 μL of HBSS was added to the apical compartment. The plates were incubated at 37° C. An aliquot of the apical compartment was sampled after 60 and 120 min (t=60 and t=120). An aliquot of the basolateral compartment was sampled at the starting time (t=0) and after 120 min. (t=120). All samples were analyzed by LC/MS monitoring both compound I and the appearance of compound II.
Compound II was dissolved in HBSS buffer (1% DMSO final concentration) at the concentrations of 1.5, 3 and 6 μM. Each concentration/sampling time was run in duplicate well. The test was performed in a gradient pH: the apical compartment (mucosal) was at pH 6.5, the basolateral compartment (serosal) was at pH 7.4.
Apical to basolateral (A→B, mucosal to serosal) transport: 200 μL of each concentration of compound II was added to the apical compartment and 400 μL of HBSS was added to the basolateral compartment. The plates were incubated at 37° C. An aliquot of the basolateral compartment was sampled after 60 and 120 min (t=60 and t=120). An aliquot of the apical compartment was sampled at the starting time (t=0) and after 120 min. (t=120).
Basolateral to apical (B→A, serosal to mucosal) transport: 400 μL of each concentration of compound II was added to the basolateral compartment and 200 μL of HBSS was added to the apical compartment. The plates were incubated at 37° C. An aliquot of the apical compartment was sampled after 60 and 120 min (t=60 and t=120). An aliquot of the basolateral compartment was sampled at the starting time (t=0) and after 120 min. (t=120). All samples were analyzed by LC/MS monitoring compound II.
(In general: Passage across Caco-2 layers is used to estimate intestinal permeability.)

Data set [6] deals with human FP-R (Homo sapiens (Human), UniProt P43088). The data set is described as follows: competitive radioligand binding, recombinant FP receptor expressed in HEK293-EBNA cells.
Procedure: The potency of inhibition of compound I and compound II on prostaglandin F2α receptor was assessed by analyzing the affinity of these compounds for recombinant FP receptor expressed in HEK293-EBNA cells.
The nature of data set [7]: solubility in water and simulated intestinal media. It counts as physicochemical.
Data set [8] concerns other prostaglandin receptor subtypes. The settings on record: FP over other subtypes. The protocol:
(§2) Selectivity of compound II was tested against all eight prostaglandin receptor subtypes.

Data set [9] deals with prostaglandin E receptor 2 (EP2) (Homo sapiens (Human), UniProt P43116). The settings on record: FP over EP2. How it is done:
as §2

Data set [10] in a line: moisture sorption/desorption and relative humidity stability of salts. Format: physicochemical. The note with it: for hygroscopicity: moisture balance data, hydrochloride. How it is done:
Moisture sorption/desorption (MB) data were collected on a VTI SGA-100 Vapor Sorption Analyzer. Sorption and desorption data were collected over a range of 5% to 95% relative humidity (RH) at 10% RH intervals under a nitrogen purge. Samples were not dried prior to analysis. Equilibrium criteria used for analysis were less than 0.0100% weight change in 5 minutes, with a maximum equilibration time of 3 hours if the weight criterion was not met. Data were not corrected for the initial moisture content of the samples. NaCl and PVP were used as calibration standards.

Data set [11] is described as follows: aqueous solubility of compound I salts. Format: physicochemical. The settings on record: water.
Data set [12] is described as follows: non-specific binding to cell-free transwells. It counts as in vitro ADME. The protocol: Non-specific binding and recovery was assessed across cell-free transwells.
Compound I was tested at 1.5, 3 and 6 μM in duplicate cell-free transwells. The test was performed in a pH gradient between the apical and the basolateral compartment. […] The following sampling times were performed: 60 and 120 min for the basolateral compartment (receiver) and 120 min for the apical compartment (donor). Samples obtained were analyzed by LC-MS, both compound I and compound II were monitored in order to assess percent of recovery.

Data set [13] can be described thus: in vivo conversion of compound I to compound II. The note with it: following gastrointestinal tract administration. How it is done:
The invention is based on the discovery that compound I ((3S)-3-({[(2S)-3-(biphenyl-4-ylsulfonyl)-1,3-thiazolidin-2-yl]carbonyl}-amino)-3-(4-fluorophenyl)propyl L-valinate, represented by formula I, below) and salts thereof are converted in vivo to 3-([1,1′-biphenyl]-4-ylsulfonyl)-N-[1-(4-fluorophenyl)-3-hydroxypropyl]-1,3-thiazolidine-2-carboxamide (represented by formula II, below).
Compound II is a competitive and reversible prostaglandin F2α receptor antagonist (human FP2α receptor Ki=6 nM) that is under development for the management of pre-term labor by inhibition of premature uterine contractions.

Data set [14] addresses PepT1 transporter (Homo sapiens (Human), UniProt P46059). The data set can be described thus: mucosal-to-serosal Caco-2 transport after Gly-Sar pre-treatment. It counts as in vitro ADME. The note with it: 10 mM Gly-Sar pre-treatment; for compound I passage to receiving compartment after Gly-Sar pre-treatment: A→B. The protocol: The differentiated cells were pre-treated for 30 min. with 10 mM of Gly-Sar in order to block the active transporter PepT1.
as §1
Apical to basolateral (A→B, mucosal to serosal) transport: 200 μL of each concentration of compound I was added to the apical compartment and 400 μL of HBSS was added to the basolateral compartment. The plates were incubated at 37° C. An aliquot of the basolateral compartment was sampled after 60 and 120 min (t=60 and t=120). An aliquot of the apical compartment was sampled at the starting time (t=0) and after 120 min. (t=120). All samples were analyzed by LC/MS monitoring both compound I and the appearance of compound II.

[15] abbreviates: FaSSIF pH 6.5, read-out: Solubility in FaSSIF.
Setting [16] is: FeSSIF pH 5.0, read-out: Solubility in FeSSIF.
Setting [17] is: water, read-out: Solubility in water.

human FP, sequence (P43088 whole entry): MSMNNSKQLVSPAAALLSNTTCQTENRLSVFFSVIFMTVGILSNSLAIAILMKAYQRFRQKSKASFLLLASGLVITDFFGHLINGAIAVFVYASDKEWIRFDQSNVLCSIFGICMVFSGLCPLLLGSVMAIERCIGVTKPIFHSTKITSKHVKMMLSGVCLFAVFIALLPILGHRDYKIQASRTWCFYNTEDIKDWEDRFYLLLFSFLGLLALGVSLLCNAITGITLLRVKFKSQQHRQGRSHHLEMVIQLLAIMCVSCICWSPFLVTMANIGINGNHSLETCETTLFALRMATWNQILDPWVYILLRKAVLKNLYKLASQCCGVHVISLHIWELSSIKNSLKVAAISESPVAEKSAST
human FP-R, sequence (P43088 whole entry): as above
prostaglandin E receptor 2 (EP2), sequence (P43116 whole entry): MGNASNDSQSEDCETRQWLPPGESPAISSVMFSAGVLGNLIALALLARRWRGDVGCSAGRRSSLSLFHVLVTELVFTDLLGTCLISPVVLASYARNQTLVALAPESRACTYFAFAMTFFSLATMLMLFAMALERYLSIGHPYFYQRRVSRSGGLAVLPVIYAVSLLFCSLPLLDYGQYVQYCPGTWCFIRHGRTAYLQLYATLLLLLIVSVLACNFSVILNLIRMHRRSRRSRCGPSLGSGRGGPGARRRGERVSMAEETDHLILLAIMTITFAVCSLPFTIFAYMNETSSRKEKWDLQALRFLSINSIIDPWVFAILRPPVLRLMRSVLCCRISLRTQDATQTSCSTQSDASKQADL

Consider `O=C(N[C@@H](CCO)c1ccc(F)cc1)[C@@H]1SCCN1S(=O)(=O)c1ccc(-c2ccccc2)cc1` (stereo in doubt) [Compound II, 3-([1,1′-biphenyl]-4-ylsulfonyl)-N-[1-(4-fluorophenyl)-3-hydroxypropyl]-1,3-thiazolidine-2-carboxamide], for which, in data set [1], the “Selectivity in panel of 50 receptors, channels and enzymes binding sites” value is listed as “high selectivity for FP”. Further, the IC50 in [2] (FP/HEK293-EBNA cells, read-out: inhibition of synthesis of IP3, IC50) amounted to 60 nM. In [2] (tested up to 10 μM, added alone), the “agonist activity: synthesis of IP3 when added alone” value was “did not induce any synthesis of IP3”. Also, the “stability in HBSS buffer” value in data set [3] is “stable”. Also, the “reduction of spontaneous uterine contractions” value in data set [4] was 40-50%. In addition, the “intravenous activity compared with atosiban” value in data set [4] is “comparable or slightly higher than that of the tocolytic drug atosiban”. In addition, the “passive passage through the Caco-2 monolayer” value in [5] is “good passive passage”. Moreover, the “passage apical to basolateral” value in [5] (A→B) was “good percentage of passage”. Besides, the “permeability basolateral to apical” value in data set [5] (B→A) was “low rate of permeability”. Moreover, the efflux entry is “No efflux was detected” in [5] and “Evidence was not found that compound II might be a substrate for an efflux transporter” in [5] (listed as compound II). Moreover, the inhibition constant Ki in [6] was determined as 6 nM. Besides, the results for the solubility in data set [7] (setting [15]), in data set [7] (setting [16]) and in data set [7] (setting [17]) were 0.4 µg/mL (≈ 0.799 µM), 10 µg/mL (≈ 20 µM) and 0.4 µg/mL (≈ 0.799 µM), respectively. For the same compound, the “Selectivity against other prostaglandin receptors” value in [8] is “higher than 100 fold”. Moreover, the “Selectivity versus prostaglandin E receptor 2 (EP2)” value in data set [9] is listed as “approximately 10 fold”.
As to `CC(C)[C@H](N)C(=O)OCC[C@H](NC(=O)[C@@H]1SCCN1S(=O)(=O)c1ccc(-c2ccccc2)cc1)c1ccc(F)cc1.Cl` [Compound III, (3S)-3-({[(2S)-3-(biphenyl-4-ylsulfonyl)-1,3-thiazolidin-2-yl]carbonyl}-amino)-3-(4-fluorophenyl)propyl L-valinate hydrochloride], in [10] (2 days at approximately 95% RH), the deliquescence result was “did not deliquesce”. Further, in data set [10] (desorption after sorption to 95% RH), the “weight loss upon desorption” value is “approximately 0.7%”. Besides, the “weight gain on sorption” value in data set [10] (from 5 to 95% relative humidity) is given as “Approximately 0.9%”. In addition, the hygroscopicity result in [10] is listed as “low hygroscopicity”; in [10] (listed as chloride salt), “non-hygroscopic”; in [10] (listed as hydrochloride salt), “low hygroscopicity; also recorded: non-hygroscopic”. Moreover, the solubility in [11] is below 1000 µg/mL.
As for `CC(C)[C@H](N)C(=O)OCC[C@H](NC(=O)[C@@H]1SCCN1S(=O)(=O)c1ccc(-c2ccccc2)cc1)c1ccc(F)cc1` [Compound I, (3S)-3-({[(2S)-3-(biphenyl-4-ylsulfonyl)-1,3-thiazolidin-2-yl]carbonyl}-amino)-3-(4-fluorophenyl)propyl L-valinate], the non-specific binding result in data set [12] (cell-free transwells, 1.5, 3 and 6 μM) is reported as “excluded”. Further, in data set [12] (cell-free transwells, any dose tested), the “detection in basolateral compartment of cell-free transwell” value was “not detected”. Besides, the “stability in HBSS buffer” value in data set [3] was “stable”. In addition, the “reduction of spontaneous uterine contractions” value in data set [4] is 40-50%. In addition, the “intravenous activity compared with atosiban” value in data set [4] is recorded as “comparable or slightly higher than that of the tocolytic drug atosiban”. The “conversion to compound II” value in [13] was “rapidly converted to compound II”. Besides, the “compound I in basolateral (receiving) compartment, apical to basolateral” value in data set [5] (A→B, 60 and 120 minutes, 1.5, 3 and 6 μM) is “not detected”. Moreover, the “compound I in apical (receiving) compartment, basolateral to apical” value in data set [5] (B→A, 60 and 120 minutes) is “not detected”. The “recovery of compound I in apical compartment at end of apical to basolateral experiment” value in data set [5] (apical compartment, 120 min) is “primarily recovered in the form of the de-esterified variant, compound II; also recorded: low recovery”. Besides, the “passage through the Caco-2 cell monolayer” value in [5] (bi-directional permeability test) is given as “did not pass through the cell monolayer”. Moreover, the Ki in data set [6] came to 1 nM. The solubility in data set [7] (setting [15]) is 70 µg/mL (≈ 117 µM); in data set [7] (setting [16]), 90 µg/mL (≈ 150 µM); in [7] (setting [17]), 380 µg/mL (≈ 634 µM). The “PepT1 mediation of transport” value in data set [14] was “likely not mediated by PepT1”. Also, the figures for the “compound I passage to receiving compartment after Gly-Sar pre-treatment” value in [14] and in data set [14] (listed as compound I) were “not detected” and “no passage”, respectively.
